Data taken from paper PMC7127349 (Bioorganic & Medicinal Chemistry Letters, 2018).

Tested on: human coronavirus (229E)
Assay type: cell-based

Molecule: CCOC(=O)C1(Cc2ccc(F)cc2)CN(c2ccccc2)Cc2nnn(Cc3ccc(Cl)c(Cl)c3)c21 (stereo not drawn) [Compound 14q]
- activity against human coronavirus (229E) lower than the activity observed with UDA: approximately 50 fold

Molecule: CCOC(=O)C1(Cc2ccccc2)CN(c2ccccc2)Cc2nnn(Cc3ccc(F)cc3)c21 (stereo not drawn) [Compound 14d]
- activity against human coronavirus (229E) lower than the activity observed with UDA: approximately 50 fold

Molecule: CCOC(=O)C1(Cc2ccccc2)CN(c2ccccc2)Cc2nnn(CCc3cc4ccccc4[nH]3)c21 (stereo not drawn) [Compound 14n]
- activity against human coronavirus (229E) lower than the activity observed with UDA: approximately 50 fold

Molecule: COc1ccc(CCn2nnc3c2CCN(c2ccc(C(F)(F)F)cc2)C3)cc1 [Compound 18f]
- activity against human coronavirus (229E) lower than the activity observed with UDA: approximately 50 fold

Molecule: Fc1cccc(Cn2nnc3c2CCN(c2ccc(C(F)(F)F)cc2)C3)c1 [Compound 18i]
- activity against human coronavirus (229E) lower than the activity observed with UDA: approximately 50 fold

B1: Urtica dioica agglutinin (protein, UniProt P11218 24-372, looked up)
Lectin/endochitinase 1: QRCGSQGGGGTCPALWCCSIWGWCGDSEPYCGRTCENKCWSGERSDHRCGAAVGNPPCGQDRCCSVHGWCGGGNDYCSGSKCQYRCSSSVRGPRVALSGNSTANSIGNVVVTEPLFDQMFSHRKDCPSQGFYSYHSFLVAAESFPAFGTIGDVATRKREVAAFLAHISQATSGERSDVENPHAWGLCHINTTTVTENDFCTSSDWPCAAGKKYSPRGPIQLTHNFNYGLAGQAIGEDLIQNPDLVEKDPIISFKTALWFWMSQHDNKPSCHDIVLNANSAANRIPNKGVIGNIISRAFGHDDFAVRSSSIGFYKRYCDMLGVSYGHDLKYWFDNTPSSEFQRIQMRVAA
- EC50 (read-out: EC50 Human Coronavirus (229E)): 200 nM
